Assay results from patent publication US12565504B2, “Spirocyclic O-glycoprotein-2-acetamido-2-deoxy-3-d-glucopyranosidase inhibitors” (BIOGEN MA INC., priority 2019, dated 2026).

What was measured:
OGA (S400 O-GLCNAC) = OGA (S400 O-GLCNAC) (Homo sapiens (Human), UniProt O60502); assay: Cellular OGA-Tau MSD Assay; type: cell-based; conditions: HEK-293T cells transfected with OGT and Tau-V5; Tau-S400-GlcNAc MSD readout
Protocol: HEK-293T cells were transfected with OGT and Tau-V5 plasmids using Lipofectamine and grown overnight. Next day, the cells were collected and re-plated at 1×10^5 cells per well in 96 well plates. Cells were incubated for 4 hr at 37° C., before compounds were added at 1 uM, with 3-fold dilutions in a 10-point titration. Cell plates were incubated with compounds overnight at 37° C. The next day media was removed from wells by gentle aspiration and 120 ul of 1× Cell Lysis buffer mixed with protease and phosphatase cocktail added to each well. A freeze thaw was performed at −80° C., then mixed before transferring 50 μl to MSD plates coated with V5-tag antibody to capture Tau. MSD Plates were incubated overnight at 4° C., on a plate shaker. The following day, plates were washed and incubated with Tau-S400-GlcNAc antibody for 2 hr and then developed with rabbit Sulfo-tag antibody. Final read out was carried out on an MSD 600 reader. The data was analyzed using Graph Pad or Genedata, the data was normalized and % activity versus log of compound concentration was plotted. The ICso values were obtained from a 4 parameter fit.

[1] = molecular target: Recombinant full length human OGA enzyme (Homo sapiens (Human), UniProt O60502); assay: OGA Enzyme Inhibition Biochemical Assay; conditions: 1 nM OGA, 100 μM 4-MUGlcNAc, 90 minutes, pH 6.4
Protocol: Recombinant full length human OGA enzyme was purchased from Origene. 4-MUGlcNAc substrate was purchased from Sigma. All other reagents were purchased from Sigma or Fisher. Assay buffer consists of the McIlvaine buffer system, pH 6.4 (0.2M Na2HPO4 mixed with 0.1M citric acid) and 0.01% BSA. […] Reactions were incubated for 90 minutes at room temperature and quenched with 40 μl of 3M glycine, pH 10 and read on a Perkin Elmer Envision plate reader (Ex: 355 nm/Em: 460 nm). Compounds were tested with a 10-point dose-response starting from 20 μM with a 4-fold dilution. Data was fit using GraphPad Prism using a 4-parameter fit with variable slope.

Chain of OGA (S400 O-GLCNAC) (O60502 whole entry): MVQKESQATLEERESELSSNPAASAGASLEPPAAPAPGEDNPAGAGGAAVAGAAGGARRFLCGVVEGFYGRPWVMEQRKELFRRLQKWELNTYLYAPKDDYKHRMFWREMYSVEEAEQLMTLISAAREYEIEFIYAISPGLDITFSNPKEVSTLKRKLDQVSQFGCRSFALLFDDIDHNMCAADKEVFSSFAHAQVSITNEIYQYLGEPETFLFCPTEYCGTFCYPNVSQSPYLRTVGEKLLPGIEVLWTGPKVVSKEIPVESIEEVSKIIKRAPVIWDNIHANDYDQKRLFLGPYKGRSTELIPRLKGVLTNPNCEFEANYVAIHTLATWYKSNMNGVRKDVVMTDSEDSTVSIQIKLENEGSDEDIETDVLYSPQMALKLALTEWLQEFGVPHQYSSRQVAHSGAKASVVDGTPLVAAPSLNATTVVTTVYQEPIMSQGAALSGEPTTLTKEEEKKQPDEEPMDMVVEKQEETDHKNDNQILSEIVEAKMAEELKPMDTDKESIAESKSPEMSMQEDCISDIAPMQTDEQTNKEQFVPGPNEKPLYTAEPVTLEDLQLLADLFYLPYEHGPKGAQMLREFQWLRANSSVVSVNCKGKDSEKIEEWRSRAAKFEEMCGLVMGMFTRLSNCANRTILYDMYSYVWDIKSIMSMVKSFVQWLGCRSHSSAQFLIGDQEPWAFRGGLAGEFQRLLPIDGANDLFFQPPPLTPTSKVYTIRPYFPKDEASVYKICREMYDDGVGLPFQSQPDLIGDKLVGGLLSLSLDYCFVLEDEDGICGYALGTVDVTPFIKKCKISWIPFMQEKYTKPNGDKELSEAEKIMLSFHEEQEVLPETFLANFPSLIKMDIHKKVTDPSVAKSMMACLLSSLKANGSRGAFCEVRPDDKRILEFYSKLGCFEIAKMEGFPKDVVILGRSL
Chain of Recombinant full length human OGA enzyme (O60502 whole entry): as above

Structure (SMILES) | IC50 (OGA (S400 O-GLCNAC)) | IC50 [1]
CC(=O)Nc1nc(F)c(CN2C[C@@]3(C[C@@H]2C)OCc2cnccc23)s1 (single isomer, unassigned) [Example 64-a] | 0.118 µM | 0.01 µM
CC(=O)Nc1nc(F)c(CN2C[C@@]3(Cc4ccccc4O3)C[C@@H]2C)s1 [Example 1, N-(4-Fluoro-5-(((2R,5′S)-5′-methyl-3H-spiro[benzofuran-2,3′-pyrrolidin]-1′-yl)methyl)thiazol-2-yl)acetamide] | 0.865 µM | 0.015 µM
CC(=O)Nc1ncc(CN2C[C@@]3(Cc4ccccc4O3)C[C@@H]2C)s1 [Example 2, N-(5-(((2R,5′S)-5′-Methyl-3H-spiro[benzofuran-2,3′-pyrrolidin]-1′-yl)methyl)thiazol-2-yl)acetamide] | 0.041 µM | 0.027 µM
CC(=O)Nc1ncc(CN2CCC3(Cc4cc(Cl)ccc4O3)C2)s1 (stereo not drawn) [Example 5, N-(5-((5-Chloro-3H-spiro[benzofuran-2,3′-pyrrolidin]-1′-yl)methyl)thiazol-2-yl)acetamide] | – | 0.15 µM
CC(=O)Nc1nc(F)c(CN2CCC3(Cc4cc(Cl)ccc4O3)C2)s1 (stereo not drawn) [Example 6, N-(5-((5-Chloro-3H-spiro[benzofuran-2,3′-pyrrolidin]-1′-yl)methyl)-4-fluorothiazol-2-yl)acetamide] | – | 0.14 µM
CC(=O)Nc1nc(F)c(CN2C[C@@]3(Cc4ccncc4O3)C[C@@H]2C)s1 [Example 9, N-(4-Fluoro-5-(((2R,5′S)-5′-methyl-3H-spiro[furo[2,3-c]pyridine-2,3′-pyrrolidin]-1′-yl)methyl)thiazol-2-yl)acetamide] | 0.012 µM | 0.001 µM
CC(=O)Nc1nc(F)c(CN2CCC3(Cc4cnccc4O3)C2)s1 (stereo not drawn) [Example 12, N-(5-((3H-Spiro[furo[3,2-c]pyridine-2,3′-pyrrolidin]-1′-yl)methyl)-4-fluorothiazol-2-yl)acetamide] | 0.093 µM | 0.035 µM
CC(=O)Nc1ncc(CN2CCC3(Cc4cnccc4O3)C2)s1 (stereo not drawn) [Example 13, N-(5-((3H-Spiro[furo[3,2-c]pyridine-2,3′-pyrrolidin]-1′-yl)methyl)thiazol-2-yl)acetamide] | 0.796 µM | 0.13 µM
CC(=O)Nc1ncc(CN2CCC3(Cc4cccnc4O3)C2)s1 (stereo not drawn) [Example 14, N-(5-((3H-Spiro[furo[2,3-b]pyridine-2,3′-pyrrolidin]-1′-yl)methyl)thiazol-2-yl)acetamide] | – | 3.8 µM
CC(=O)Nc1nc(F)c(CN2CCC3(Cc4cccnc4O3)C2)s1 (stereo not drawn) [Example 15, N-(5-((3H-Spiro[furo[2,3-b]pyridine-2,3′-pyrrolidin]-1′-yl)methyl)-4-fluorothiazol-2-yl)acetamide] | – | 1.7 µM
COc1cc2c(cn1)O[C@]1(C2)C[C@H](C)N(Cc2sc(NC(C)=O)nc2F)C1 [Example 16, N-(4-Fluoro-5-(((2R,5′S)-5-methoxy-5′-methyl-3H-spiro[furo[2,3-c]pyridine-2,3′-pyrrolidin]-1′-yl)methyl)thiazol-2-yl)acetamide] | 0.002 µM | < 0.001 µM
COc1cc2c(cn1)O[C@]1(C2)C[C@H](C)N(Cc2cnc(NC(C)=O)s2)C1 [Example 17, N-(5-(((2R,5′S)-5-Methoxy-5′-methyl-3H-spiro[furo[2,3-c]pyridine-2,3′-pyrrolidin]-1′-yl)methyl)thiazol-2-yl)acetamide] | 0.008 µM | < 0.001 µM
COc1nccc2c1C[C@]1(C[C@H](C)N(Cc3sc(NC(C)=O)nc3F)C1)O2 [Example 18, N-(4-Fluoro-5-(((2R,5′S)-4-methoxy-5′-methyl-3H-spiro[furo[3,2-c]pyridine-2,3′-pyrrolidin]-1′-yl)methyl)thiazol-2-yl)acetamide] | 0.004 µM | 0.002 µM
COc1ccc2c(n1)C[C@]1(C[C@H](C)N(Cc3sc(NC(C)=O)nc3F)C1)O2 [Example 20, N-(4-Fluoro-5-(((2S,5′S)-5-methoxy-5′-methyl-3H-spiro[furo[3,2-b]pyridine-2,3′-pyrrolidin]-1′-yl)methyl)thiazol-2-yl)acetamide] | 0.004 µM | < 0.001 µM
CC(=O)Nc1nc(F)c(CN2C[C@@]3(Cc4cc(C(F)(F)F)ncc4O3)C[C@@H]2C)s1 [Example 21, N-(4-Fluoro-5-(((2R,5′S)-5′-methyl-5-(trifluoromethyl)-3H-spiro[furo[2,3-c]pyridine-2,3′-pyrrolidin]-1′-yl)methyl)thiazol-2-yl)acetamide] | 0.006 µM | 0.007 µM
CC(=O)Nc1nc(F)c(CN2C[C@@]3(Cc4cc(C)ncc4O3)C[C@@H]2C)s1 [Example 23, N-(5-(((2R,5′S)-5,5′-Dimethyl-3H-spiro[furo[2,3-c]pyridine-2,3′-pyrrolidin]-1′-yl)methyl)-4-fluorothiazol-2-yl)acetamide] | 0.013 µM | 0.001 µM
CC(=O)Nc1ncc(CN2C[C@@]3(Cc4cc(C5CC5)ncc4O3)C[C@@H]2C)s1 [Example 25, N-(5-(((2R,5′S)-5-Cyclopropyl-5′-methyl-3H-spiro[furo[2,3-c]pyridine-2,3′-pyrrolidin]-1′-yl)methyl)thiazol-2-yl)acetamide] | 0.023 µM | 0.006 µM
CC(=O)Nc1ncc(CN2C[C@@]3(Cc4cc(C(F)F)ncc4O3)C[C@@H]2C)s1 [Example 27, N-(5-(((2R,5′S)-5-(Difluoromethyl)-5′-methyl-3H-spiro[furo[2,3-c]pyridine-2,3′-pyrrolidin]-1′-yl)methyl)thiazol-2-yl)acetamide] | 0.016 µM | 0.011 µM
CC(=O)Nc1nc(F)c(CN2CCCC3(C2)OCc2cccnc23)s1 (stereo not drawn) [Example 61, N-(5-((5H-Spiro[furo[3,4-b]pyridine-7,3′-piperidin]-1′-yl)methyl)-4-fluorothiazol-2-yl)acetamide] | – | 0.029 µM
CC(=O)Nc1ncc(CN2C[C@@]3(C[C@@H]2C)OCc2ccncc23)s1 [Example 71-a, N-(5-(((3S,5′S)-5′-Methyl-1H-spiro[furo[3,4-c]pyridine-3,3′-pyrrolidin]-1′-yl)methyl)thiazol-2-yl)acetamide] | – | 0.15 µM
CC(=O)Nc1ncc(CN2C[C@]3(C[C@@H]2C)OCc2ccncc23)s1 [Example 71-b, N-(5-(((3R,5′S)-5′-methyl-1H-spiro[furo[3,4-c]pyridine-3,3′-pyrrolidin]-1′-yl)methyl)thiazol-2-yl)acetamide] | – | 0.26 µM
CC(=O)Nc1nc(F)c(CN2CCC3(Cc4ccncc4O3)C2)s1 (stereo not drawn) [Example 90, N-(5-((3H-spiro[furo[2,3-c]pyridine-2,3′-pyrrolidin]-1′-yl)methyl)-4-fluorothiazol-2-yl)acetamide] | – | 0.12 µM

Continued, values first:

IC50 (OGA (S400 O-GLCNAC)) | IC50 [1] | Structure (SMILES)
0.0138 µM | 0.0032 µM | CC(=O)Nc1nc(F)c(CN2CCCC3(C2)OCc2cnccc23)s1 (racemic) [Example 69, N-(5-((3H-Spiro[furo[3,4-c]pyridine-1,3′-piperidin]-1′-yl)methyl)-4-fluorothiazol-2-yl)acetamide]
0.0183 µM | 0.0059 µM | CC(=O)Nc1nc(F)c(CN2CCCC3(C2)OCc2c3ccnc2Cl)s1 (racemic) [Example 83, N-(5-((4-Chloro-3H-spiro[furo[3,4-c]pyridine-1,3′-piperidin]-1′-yl)methyl)-4-fluorothiazol-2-yl)acetamide]
– | 0.17 µM | CC(=O)Nc1nc(F)c(CN2C[C@]3(C[C@@H]2C)OCc2cnccc23)s1 (single isomer, unassigned) [Example 64-b]
– | 0.024 µM | CC(=O)Nc1ncc(CN2C[C@@]3(C[C@@H]2C)OCc2cnccc23)s1 (single isomer, unassigned) [Example 65-a]
– | 0.44 µM | CC(=O)Nc1ncc(CN2C[C@]3(C[C@@H]2C)OCc2cnccc23)s1 (single isomer, unassigned) [Example 65-b]
0.0084 µM | 0.0014 µM | CC(=O)Nc1nc(F)c(CN2CCC[C@@]3(C2)OCc2cnccc23)s1 (single isomer, unassigned) [Example 70-a]
> 1 µM | 0.85 µM | CC(=O)Nc1nc(F)c(CN2CCC[C@]3(C2)OCc2cnccc23)s1 (single isomer, unassigned) [Example 70-b]
– | 0.03 µM | CC(=O)Nc1nc(F)c(CN2C[C@@]3(C[C@@H]2C)OCc2ccncc23)s1 (single isomer, unassigned) [Example 72-a]
– | 0.11 µM | CC(=O)Nc1nc(F)c(CN2C[C@]3(C[C@@H]2C)OCc2ccncc23)s1 (single isomer, unassigned) [Example 72-b]
0.007 µM | – | COc1nccc2c1COC21C[C@H](C)N(Cc2sc(NC(C)=O)nc2F)C1 (stereo partly drawn) [Example 77, N-(4-Fluoro-5-(((5′S)-4-methoxy-5′-methyl-3H-spiro[furo[3,4-c]pyridine-1,3′-pyrrolidin]-1′-yl)methyl)thiazol-2-yl)acetamide]
0.005 µM | – | CC(=O)Nc1nc(F)c(CN2CC3(C[C@@H]2C)OCc2ncccc23)s1 (stereo partly drawn) [Example 79, N-(4-Fluoro-5-(((5′S)-5′-methyl-7H-spiro[furo[3,4-b]pyridine-5,3′-pyrrolidin]-1′-yl)methyl)thiazol-2-yl)acetamide]
